Like-named read-outs stand apart in the source and are kept apart here. Marks after values point to notes of the source that are not given here. Numbered stars: 1 amine (or outer) side, 2 acyl side, 3 side chain; on linkers, the order of the positions; unused ones are H or OH. Square brackets hold non-standard residues; d marks the D form. Peptide text beside a SMILES is read from it. * marks the point of attachment. X3 = O=C(c1c(OCCN[*:1])c(-c2ccccc2)nc2ccccc12)[*:2]; X1 = O=C1[C@@H](N[*:1])Cc2ccccc2CN1CCC(=O)[*:2]; NH(1S-phenylpropyl) = CC[C@H](N*)c1ccccc1; Dmt = Cc1cc(O)cc(C)c1C[C@H](N)C(=O)O; 4Amb = NCc1ccc(C(=O)O)cc1; Ac5c = NC1(C(=O)O)CCCC1; X2 = C(CN*)CN1CCOCC1
Assays:
NK2 (h) = target: T1, NK2 (h) (Homo sapiens, UniProt P21452); test: NK2 radioligand binding assay (Eurofins)
T1 construct: host or cells: CHO cells
T1 sequence (P21452 1-398): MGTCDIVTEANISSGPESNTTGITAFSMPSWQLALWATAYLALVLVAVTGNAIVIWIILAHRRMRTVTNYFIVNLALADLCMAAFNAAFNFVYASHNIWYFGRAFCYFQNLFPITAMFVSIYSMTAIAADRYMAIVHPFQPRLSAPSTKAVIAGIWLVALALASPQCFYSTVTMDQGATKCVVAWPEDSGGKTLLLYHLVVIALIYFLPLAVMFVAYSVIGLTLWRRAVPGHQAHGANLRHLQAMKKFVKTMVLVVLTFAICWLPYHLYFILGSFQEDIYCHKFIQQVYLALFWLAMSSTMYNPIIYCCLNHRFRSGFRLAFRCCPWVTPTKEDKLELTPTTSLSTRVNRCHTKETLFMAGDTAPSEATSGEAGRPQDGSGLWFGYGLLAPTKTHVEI

human recombinant DOR [1] = target: T2, human recombinant DOR (Homo sapiens, UniProt P41143); test: Opioid receptor radioligand binding assay, DOR
T2 construct: expressed in transfected cells; host or cells: CHO cells (gift from Prof. Girolamo Calo', Ferrara University)
T2 sequence (P41143 whole entry): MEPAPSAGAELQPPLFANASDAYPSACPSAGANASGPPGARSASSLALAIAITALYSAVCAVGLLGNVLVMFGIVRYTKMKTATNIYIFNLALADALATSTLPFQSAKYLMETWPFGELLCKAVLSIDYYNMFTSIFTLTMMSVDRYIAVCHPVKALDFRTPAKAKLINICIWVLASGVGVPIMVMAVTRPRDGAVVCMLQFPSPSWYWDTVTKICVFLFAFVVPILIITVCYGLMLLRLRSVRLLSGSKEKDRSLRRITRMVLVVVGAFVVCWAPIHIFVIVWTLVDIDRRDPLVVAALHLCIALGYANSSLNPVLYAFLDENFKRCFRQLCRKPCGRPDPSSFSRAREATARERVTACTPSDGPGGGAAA

human recombinant MOR [2] = target: T3, human recombinant MOR (Homo sapiens, UniProt P35372); test: Calcium mobilization assay, CHO MOR cells with Gαqi5; type: cell-based; conditions: for reduction in potency at MOR compared to dermorphin / reduction in potency at MOR compared to opioid parent pharmacophore KGOP01 / EC50: calcium mobilization; for EC50: CHO MOR Gαqi5, maximum tested concentration 10 µM, read-out: MOR EC50 ± SEM; for MOR α ± SEM: intrinsic activity: Emax of ligand / Emax of dermorphin
T3 construct: expressed in transfected cells; host or cells: CHO cells (gift from Prof. Girolamo Calo', Ferrara University)
T3 sequence (P35372 whole entry): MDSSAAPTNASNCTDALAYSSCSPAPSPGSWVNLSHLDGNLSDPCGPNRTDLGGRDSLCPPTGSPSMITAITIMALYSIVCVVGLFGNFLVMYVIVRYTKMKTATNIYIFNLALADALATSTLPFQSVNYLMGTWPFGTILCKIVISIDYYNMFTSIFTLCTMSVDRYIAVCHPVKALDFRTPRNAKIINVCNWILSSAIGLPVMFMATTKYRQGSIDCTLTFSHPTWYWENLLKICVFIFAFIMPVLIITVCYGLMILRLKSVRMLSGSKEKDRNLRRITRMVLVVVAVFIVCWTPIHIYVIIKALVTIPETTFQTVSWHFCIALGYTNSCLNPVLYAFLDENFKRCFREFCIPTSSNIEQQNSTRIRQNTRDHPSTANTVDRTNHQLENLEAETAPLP

human recombinant DOR [3] = target: T2, human recombinant DOR; test: Calcium mobilization assay, CHO DOR cells with GαqG66Di5; type: cell-based; conditions: for decreased potency at DOR compared to reference DPDPE / EC50 / DOR EC50 ± SEM (nM): calcium mobilization; for EC50 / DOR EC50 ± SEM (nM): CHO DOR GαqG66Di5, maximum tested concentration 10 µM; for EC50: read-out: DOR EC50 ± SEM; for DOR α ± SEM: intrinsic activity: Emax of ligand / Emax of DPDPE
human recombinant MOR [4] = target: T3, human recombinant MOR; test: Opioid receptor radioligand binding assay, MOR
human recombinant KOR [5] = target: T4, human recombinant KOR (Homo sapiens, UniProt P41145); test: Opioid receptor radioligand binding assay, KOR
T4 construct: expressed in transfected cells; host or cells: CHO cells (gift from Prof. Girolamo Calo', Ferrara University)
T4 sequence (P41145 whole entry): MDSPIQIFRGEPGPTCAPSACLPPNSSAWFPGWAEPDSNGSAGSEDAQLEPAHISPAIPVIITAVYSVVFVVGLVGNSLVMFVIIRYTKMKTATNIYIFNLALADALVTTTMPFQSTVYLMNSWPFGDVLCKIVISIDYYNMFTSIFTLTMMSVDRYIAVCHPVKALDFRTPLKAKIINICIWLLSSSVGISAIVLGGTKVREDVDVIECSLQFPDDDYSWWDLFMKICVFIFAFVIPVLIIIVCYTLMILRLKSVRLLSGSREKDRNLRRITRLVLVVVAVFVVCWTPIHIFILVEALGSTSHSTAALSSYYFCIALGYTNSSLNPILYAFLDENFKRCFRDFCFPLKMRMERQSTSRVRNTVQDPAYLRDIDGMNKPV

human recombinant KOR [6] = target: T4, human recombinant KOR; test: Calcium mobilization assay, CHO KOR cells with Gαqi5; type: cell-based; conditions: for KOR α ± SEM: intrinsic activity: Emax of ligand / Emax of dynorphin A
NK3 (h) = target: T5, NK3 (h) (Homo sapiens, UniProt P29371); test: NK3 radioligand binding assay (Eurofins)
T5 construct: host or cells: CHO cells
T5 sequence (P29371 1-465): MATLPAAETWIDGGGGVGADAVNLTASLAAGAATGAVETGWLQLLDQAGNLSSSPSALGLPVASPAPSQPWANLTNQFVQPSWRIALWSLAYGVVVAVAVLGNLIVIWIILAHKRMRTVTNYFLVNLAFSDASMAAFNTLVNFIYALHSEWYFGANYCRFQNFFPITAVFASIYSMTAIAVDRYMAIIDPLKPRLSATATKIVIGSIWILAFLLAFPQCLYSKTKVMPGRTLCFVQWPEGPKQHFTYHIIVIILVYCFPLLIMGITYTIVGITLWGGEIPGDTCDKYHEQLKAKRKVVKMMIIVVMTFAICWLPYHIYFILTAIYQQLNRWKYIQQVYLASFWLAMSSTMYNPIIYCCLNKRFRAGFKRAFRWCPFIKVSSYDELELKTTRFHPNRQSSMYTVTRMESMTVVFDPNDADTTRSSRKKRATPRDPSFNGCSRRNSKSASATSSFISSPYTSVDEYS

human recombinant DOR [7] = target: T2, human recombinant DOR; design: method as in PMID 23007594; conditions: intrinsic activity; data from reported literature ref 30; cited from earlier work
[8] = [3H][Ile5,6]deltorphin-2 displacement, CHO cell membranes, human recombinant receptor
[9] = [3H]DAMGO displacement, CHO cell membranes, human recombinant receptor
[10] = calcium mobilization, CHO KOR Gαqi5, maximum tested concentration 10 µM, crc = concentration-response curve

| SMILES | Ki (human recombinant DOR [1]) [nM] | reduction in potency at MOR compared to dermorphin (human recombinant MOR [2]) [fold] | reduction in potency at MOR compared to opioid parent pharmacophore KGOP01 (human recombinant MOR [2]) [fold] | EC50 (human recombinant MOR [2]) [nM] | MOR α ± SEM (human recombinant MOR [2]) | decreased potency at DOR compared to reference DPDPE (human recombinant DOR [3]) | EC50 (human recombinant DOR [3]) [nM] | DOR α ± SEM (human recombinant DOR [3]) | Ki (human recombinant MOR [4]) [nM] | Ki (human recombinant KOR [5]) [nM] | KOR α ± SEM (human recombinant KOR [6]) | Ki [nM] ± SEM DOR (human recombinant DOR [1]; [8]) | DOR EC50 ± SEM (nM) (human recombinant DOR [3]) | Ki [nM] ± SEM MOR (human recombinant MOR [4]; [9]) | KOR EC50 ± SEM (nM) (human recombinant KOR [6]; [10]) | other results |
| --- | --- | --- | --- | --- | --- | --- | --- | --- | --- | --- | --- | --- | --- | --- | --- | --- |
| Cc1cc(O)cc(C)c1C[C@H](N)C(=O)N[C@H](CCCNC(=N)N)C(=O)N[C@H]1Cc2ccccc2CN(CCC(=O)N[C@@H](CC(=O)O)C(=O)N[C@@H](Cc2ccc(O)cc2)C(=O)N[C@H](Cc2c[nH]c3ccccc23)C(=O)N[C@H](C(=O)N[C@H](Cc2c[nH]c3ccccc23)C(=O)N[C@H](Cc2c[nH]c3ccccc23)C(=O)N[C@@H](CCCCN)C(N)=O)C(C)C)C1=O [SBL-OPNK-5] (H-[Dmt][dR][X1]DY[dW]V[dW][dW]K-NH2) | 10 ± 3.2 | 2 | 18 | 10.2 ± 0.67 | 0.91 ± 0.04 | 2–3 fold | 118 ± 26 | 1.01 ± 0.03 | 2.11 ± 0.04 | 90.7 ± 0.94 | 0.44 ± 0.06 | – | – | – | – | IC50 (NK2 (h)): 3 ± 1 nM; Ki (NK2 (h)): 1.6 ± 1.1 nM; EC50 (human recombinant KOR [6]; calcium mobilization, CHO KOR Gαqi5, maximum tested concentration 10 µM, crc = concentration-response curve, read-out: KOR EC50 ± SEM): 415 ± 133 nM |
| Cc1cc(O)cc(C)c1C[C@H](N)C(=O)N[C@H](CCCNC(=N)N)C(=O)N[C@@H](Cc1ccccc1)C(=O)N[C@@H](CCCCN)C(=O)NCc1ccc(C(=O)NC2(C(=O)N[C@H](Cc3ccccc3)C(=O)NCCCN3CCOCC3)CCCC2)cc1 [SBL-OPNK-6] (H-[Dmt][dR]FK[4Amb][Ac5c][dF]-X2) | 22400 | – | – | 988 ± 82 | 0.67 ± 0.05 | – | – | inactive | 74.93 ± 0.15 | 100 ± 1.16 | crc incomplete | did not bind efficiently | inactive | Weak binding | crc incomplete | – |
| Cc1cc(O)cc(C)c1C[C@H](N)C(=O)N[C@H](CCCNC(=N)N)C(=O)N[C@H]1Cc2ccccc2CN(CCC(=O)NCc2ccc(C(=O)NC3(C(=O)N[C@H](Cc4ccccc4)C(=O)NCCCN4CCOCC4)CCCC3)cc2)C1=O [SBL-OPNK-7] (H-[Dmt][dR][X1][4Amb][Ac5c][dF]-X2) | – | 3 | 24 | 13.1 ± 1.84 | 0.89 ± 0.04 | 2–3 fold | 66.5 ± 11.7 | 1.02 ± 0.02 | – | – | inactive | – | – | – | completely inactive | IC50 (NK2 (h); [125I]NKA 0.1 nM, human recombinant (CHO cells), 60 min RT, n.c. = less than 25% inhibitory binding at highest validated test concentrations, read-out: IC50 [nM] ± SEM, NK2 receptor): 0.63 ± 0.22 nM; Ki (NK2 (h); [125I]NKA 0.1 nM, human recombinant (CHO cells), Cheng Prusoff, n.c. = not calculated, read-out: Ki [nM] ± SEM, NK2 receptor): 0.34 ± 0.24 nM; Ki (human recombinant DOR [1]; [3H][Ile5,6]deltorphin-2 displacement, CHO cell membranes, human recombinant receptor, read-out: Ki [nM] ± SEM DOR): 3.26 ± 0.09 nM; Ki (human recombinant MOR [4]; [3H]DAMGO displacement, CHO cell membranes, human recombinant receptor, read-out: Ki [nM] ± SEM MOR): 2.83 ± 0.02 nM; Ki (human recombinant KOR [5]; [3H]nor-BNI displacement, CHO cell membranes, human recombinant receptor, read-out: Ki [nM] ± SEM KOR): 53 ± 3.2 nM |
| CC[C@H](NC(=O)c1c(OCCNC(=O)[C@H](CCCCN)NC(=O)[C@H](Cc2ccccc2)NC(=O)[C@@H](CCCNC(=N)N)NC(=O)[C@@H](N)Cc2c(C)cc(O)cc2C)c(-c2ccccc2)nc2ccccc12)c1ccccc1 [SBL-OPNK-8] (H-[Dmt][dR]FK[X3]-{NH(1S-phenylpropyl)}) | 4570 | – | – | 916 ± 106 | 0.65 ± 0.02 | – | – | inactive | 120 ± 5.25 | 104 ± 6.12 | crc incomplete | did not bind efficiently | inactive | Weak binding | crc incomplete | – |
| CC[C@H](NC(=O)c1c(OCCNC(=O)CCN2Cc3ccccc3C[C@H](NC(=O)[C@@H](CCCNC(=N)N)NC(=O)[C@@H](N)Cc3c(C)cc(O)cc3C)C2=O)c(-c2ccccc2)nc2ccccc12)c1ccccc1 [SBL-OPNK-9] | 6.57 ± 4.02 | – | – | 31.3 ± 7.39 | 0.83 ± 0.05 | 2–3 fold | 84.1 ± 18 | 1.02 ± 0.03 | 5.43 ± 0.08 | 97.1 ± 4.72 | crc incomplete | – | – | – | crc incomplete | IC50 (NK3 (h)): 6.7 ± 2.4 nM; Ki (NK3 (h)): 3.6 ± 2.5 nM; increase of NK3 affinity and potency compared to reference SB 222200 (NK3 (h)): 1.5 fold |
| CC[C@H](C)[C@H](NC(=O)[C@H](CCCNC(=N)N)NC(=O)[C@H](CCCNC(=N)N)NC(=O)[C@H](CC(C)C)NC(=O)[C@H](Cc1ccccc1)NC(=O)CNC(=O)CNC(=O)[C@@H](N)Cc1ccc(O)cc1)C(=O)N[C@@H](CCCNC(=N)N)C(=O)N1CCC[C@H]1C(=O)N[C@@H](CCCCN)C(=O)N[C@@H](CC(C)C)C(=O)N[C@@H](CCCCN)C(=O)N[C@@H](Cc1c[nH]c2ccccc12)C(=O)N[C@@H](CC(=O)O)C(=O)N[C@@H](CC(N)=O)C(=O)N[C@@H](CCC(N)=O)C(=O)O [dynorphin A] | – | – | – | – | – | – | – | – | – | – | – | – | – | – | – | DOR α ± SEM (human recombinant DOR [7]): 0.99 ± 0.04 ^a |

From paper PMC8434392, “Harnessing the Anti-Nociceptive Potential of NK2 and NK3 Ligands in the Design of New Multifunctional μ/δ-Opioid Agonist–Neurokinin Antagonist Peptidomimetics” (Molecules, 2021)
